Assay results from patent US8779195B2, “Polyamine derivatives” (Nihon University, priority 2006, dated 2014).
Where a name gives a salt, the structure may show the parent alone. Read-outs that look alike come from different tables or passages of the source.

Experiments:
[1] = system: Rat hippocampal primary culture cells; assay: protective effect against nerve cell death induced by glutamate (lactate dehydrogenase release); assay type: cell-based; conditions: glutamate exposure one hour, LDH release after 24 hours
Description: (§1) Next, the protective effect of polyamine derivatives against nerve cell death due to excitotoxicity was investigated. Rat hippocampal primary culture cells were cultured for seven days and exposed to glutamate or NMDA for one hour. Nerve cell death induced in this manner was evaluated based on lactate dehydrogenase release after 24 hours as an index, significant cell death was observed. In addition, it was observed that nerve cell death caused by glutamate and NMDA exposure has concentration dependency.

NMDA receptor NR1/NR2B = NMDA receptor NR1/NR2B (Rattus norvegicus, UniProt P35439+Q00960); assay: two-electrode voltage clamp, NMDA receptor activity inhibition in Xenopus oocytes (NR1/NR2B); assay type: cell-based
NMDA receptor NR1/NR2B, sequence (Q00960 27-1482, other chains not shown): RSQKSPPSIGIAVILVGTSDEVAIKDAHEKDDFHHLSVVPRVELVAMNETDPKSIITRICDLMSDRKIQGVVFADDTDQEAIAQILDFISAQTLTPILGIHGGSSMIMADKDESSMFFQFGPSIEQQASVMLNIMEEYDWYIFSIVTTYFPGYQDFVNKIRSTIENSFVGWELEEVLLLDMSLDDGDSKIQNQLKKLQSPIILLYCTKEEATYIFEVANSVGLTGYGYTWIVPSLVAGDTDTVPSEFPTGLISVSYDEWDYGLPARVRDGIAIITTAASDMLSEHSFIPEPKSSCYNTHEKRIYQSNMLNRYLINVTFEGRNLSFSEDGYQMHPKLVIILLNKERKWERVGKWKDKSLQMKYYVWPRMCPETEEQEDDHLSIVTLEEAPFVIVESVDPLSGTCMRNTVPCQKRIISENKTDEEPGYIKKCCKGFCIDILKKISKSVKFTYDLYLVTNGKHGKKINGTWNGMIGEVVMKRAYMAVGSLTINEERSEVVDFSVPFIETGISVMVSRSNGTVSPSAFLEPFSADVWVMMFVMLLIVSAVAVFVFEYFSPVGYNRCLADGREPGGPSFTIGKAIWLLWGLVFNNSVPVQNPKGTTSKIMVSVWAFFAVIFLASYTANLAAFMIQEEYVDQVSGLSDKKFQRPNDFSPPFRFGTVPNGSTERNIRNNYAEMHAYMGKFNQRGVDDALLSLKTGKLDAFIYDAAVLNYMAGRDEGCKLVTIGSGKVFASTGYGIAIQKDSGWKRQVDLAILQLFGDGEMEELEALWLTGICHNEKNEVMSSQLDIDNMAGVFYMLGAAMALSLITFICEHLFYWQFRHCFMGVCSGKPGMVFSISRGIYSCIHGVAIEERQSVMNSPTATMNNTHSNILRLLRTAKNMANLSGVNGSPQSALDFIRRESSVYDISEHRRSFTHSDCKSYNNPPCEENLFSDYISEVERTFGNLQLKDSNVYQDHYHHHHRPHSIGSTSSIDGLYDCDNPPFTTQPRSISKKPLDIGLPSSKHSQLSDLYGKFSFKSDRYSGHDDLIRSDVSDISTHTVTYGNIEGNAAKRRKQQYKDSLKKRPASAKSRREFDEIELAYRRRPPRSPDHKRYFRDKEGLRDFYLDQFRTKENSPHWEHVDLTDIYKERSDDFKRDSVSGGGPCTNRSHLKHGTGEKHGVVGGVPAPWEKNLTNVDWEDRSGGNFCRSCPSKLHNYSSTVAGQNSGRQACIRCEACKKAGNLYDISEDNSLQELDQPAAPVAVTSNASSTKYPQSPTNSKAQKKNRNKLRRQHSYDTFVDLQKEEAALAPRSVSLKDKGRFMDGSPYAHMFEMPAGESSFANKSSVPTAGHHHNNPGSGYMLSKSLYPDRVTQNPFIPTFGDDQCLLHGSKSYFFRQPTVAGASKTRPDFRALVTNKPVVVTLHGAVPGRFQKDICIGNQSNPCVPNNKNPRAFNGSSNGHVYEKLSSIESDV
Description: (§2) To confirm pharmacological function of TsPD, TsPDG, TsSPMG, BsPDG, and Tosyl-SPM synthesized above (synthesized by the method described in Patent Document 1 mentioned above), the effect of these compounds on NMDA receptor was measured by a two-electrode voltage clamp method.
(§3) This method can be carried out in accordance with the method of Masuko et al. (Masuko T. et al., Mol. Pharmacol. 55: 957-969 (1999); Masuko T. et al., Nuerosci. Lett. 371: 30-33 (2004); Masuko T. et al., Chem. Pharm. Bull. 53 (4) 444-447 (2005)). To the oocyte, cRNAs of an NR1 subunit and an NR2 subunit of NMDA receptor were injected in a ratio of 1:5 (NR1: 0.1 to 4 ng, NR2: 0.5 to 20 ng) to obtain the oocyte in which NMDA receptor was expressed.
(§4) The oocytes were cultured in a medium (96 mM NaCl, 2 mM KCl, 1 mM MgCl2, 1.8 mM CaCl2, 5 mM Na-HEPES, 2.5 mM sodium pyruvate, 50 μg/ml gentamicin, pH=7.5) at 19° C. for 1 to 3 days.
(§5) At the measurement date, K^+-BAPTA was injected in the oocytes and then, the activity of the receptors was measured by the two-electrode voltage clamp method (described later) using a recording buffer (96 mM NaCl, 2 mM KCl, 1.8 mM BaCl2, 10 mM Na-HEPES, pH=7.5).
(§6) Note that there is a single type of gene in NR1 and 4 types of genes, namely NR2A to NR2D, in NR2. There are NR1/NR2A, NR1/NR2B, NR1/NR2C and NR1/NR2D subtypes in NMDA receptor. However, NR1/NR2A and NR1/NR2B subtypes are conceivably present widely in the brain. Therefore, the activity inhibitory effects on these two types were measured in the following experiments.
(§7) The two-electrode voltage clamp method was carried out in accordance with the method of Williams et al. (Williams, K. et al., Mol. Pharmacol 38: 85-108). The current flowing through the entire membrane of the oocyte was measured by an amplifier CEZ-1250 (Nihon Kohden Corporation) for the two-electrode voltage clamp method. The electrode was filled with 3M potassium chloride and the resistance was set at 0.4 to 4 MΩ. In measurement, glutamate and glycine were added as NMDA agonists.
(§8) To the oocytes obtained by the aforementioned method, various concentrations of TsPD, TsPDG, TsSPMG, BsPDG and Tosyl-SPM were added. The activity inhibitory effect on […] subtypes was measured at a fixed voltage (Vh) of −70 mV (resting membrane potential).
(§9) As a comparative example, the same measurement is performed by use of Dansyl-SPM represented by the aforementioned formula (III).
(§10) Values obtained from 4 to 5 oocytes were averaged. The average value±S.E.M. was regarded as a measurement value.

[2] = cytotoxicity test, Alamar blue assay; assay type: cell-based; conditions: human, 24 hours exposure, read-out: IC50 (concentration at which respiratory activity is 50%)
Description: A cytotoxicity test was carried out with respect to TsPD, TsPDG, TsSPMG, BsPDG and Tosyl-SPM. Also in this test, Dansyl-SPM was used in a comparative example.
SH-SY5Y neuroblastoma cell line was purchased from the American Type Culture Collection. The cells were cultured in a D-MEM medium to which penicillin (100 U/ml), streptomycin (100 U/ml) and inactivated fetal bovine serum (Gibco) were added. The cells were maintained in a CO2 incubator at 37° C. and kept under the condition of 95% air and 5% CO2.
Undifferentiated SH-SY5Y cells were exposed to various concentrations of polyamine derivatives for 24 hours. An Alamar blue stock solution was transferred to a 96 well plate. The final assay volume was set at 100 μl/well and the final concentration of the Alamar blue was set at 10%. Six hours later, reduced Alamar blue was measured at a wavelength of 570 nm (FIG. 3). A survival rate (%) of the cells exposed to a polyamine derivative for 24 hours was expressed by a relative value of respiratory activity of the cells based on respiratory activity (100%) of mitochondria of the cells to which no drug is added.

NMDA receptor NR1/NR2A = NMDA receptor NR1/NR2A (Rattus norvegicus, UniProt P35439+Q00959); assay: two-electrode voltage clamp, NMDA receptor activity inhibition in Xenopus oocytes (NR1/NR2A); assay type: cell-based
NMDA receptor NR1/NR2A, sequence (Q00959 23-1464, other chains not shown): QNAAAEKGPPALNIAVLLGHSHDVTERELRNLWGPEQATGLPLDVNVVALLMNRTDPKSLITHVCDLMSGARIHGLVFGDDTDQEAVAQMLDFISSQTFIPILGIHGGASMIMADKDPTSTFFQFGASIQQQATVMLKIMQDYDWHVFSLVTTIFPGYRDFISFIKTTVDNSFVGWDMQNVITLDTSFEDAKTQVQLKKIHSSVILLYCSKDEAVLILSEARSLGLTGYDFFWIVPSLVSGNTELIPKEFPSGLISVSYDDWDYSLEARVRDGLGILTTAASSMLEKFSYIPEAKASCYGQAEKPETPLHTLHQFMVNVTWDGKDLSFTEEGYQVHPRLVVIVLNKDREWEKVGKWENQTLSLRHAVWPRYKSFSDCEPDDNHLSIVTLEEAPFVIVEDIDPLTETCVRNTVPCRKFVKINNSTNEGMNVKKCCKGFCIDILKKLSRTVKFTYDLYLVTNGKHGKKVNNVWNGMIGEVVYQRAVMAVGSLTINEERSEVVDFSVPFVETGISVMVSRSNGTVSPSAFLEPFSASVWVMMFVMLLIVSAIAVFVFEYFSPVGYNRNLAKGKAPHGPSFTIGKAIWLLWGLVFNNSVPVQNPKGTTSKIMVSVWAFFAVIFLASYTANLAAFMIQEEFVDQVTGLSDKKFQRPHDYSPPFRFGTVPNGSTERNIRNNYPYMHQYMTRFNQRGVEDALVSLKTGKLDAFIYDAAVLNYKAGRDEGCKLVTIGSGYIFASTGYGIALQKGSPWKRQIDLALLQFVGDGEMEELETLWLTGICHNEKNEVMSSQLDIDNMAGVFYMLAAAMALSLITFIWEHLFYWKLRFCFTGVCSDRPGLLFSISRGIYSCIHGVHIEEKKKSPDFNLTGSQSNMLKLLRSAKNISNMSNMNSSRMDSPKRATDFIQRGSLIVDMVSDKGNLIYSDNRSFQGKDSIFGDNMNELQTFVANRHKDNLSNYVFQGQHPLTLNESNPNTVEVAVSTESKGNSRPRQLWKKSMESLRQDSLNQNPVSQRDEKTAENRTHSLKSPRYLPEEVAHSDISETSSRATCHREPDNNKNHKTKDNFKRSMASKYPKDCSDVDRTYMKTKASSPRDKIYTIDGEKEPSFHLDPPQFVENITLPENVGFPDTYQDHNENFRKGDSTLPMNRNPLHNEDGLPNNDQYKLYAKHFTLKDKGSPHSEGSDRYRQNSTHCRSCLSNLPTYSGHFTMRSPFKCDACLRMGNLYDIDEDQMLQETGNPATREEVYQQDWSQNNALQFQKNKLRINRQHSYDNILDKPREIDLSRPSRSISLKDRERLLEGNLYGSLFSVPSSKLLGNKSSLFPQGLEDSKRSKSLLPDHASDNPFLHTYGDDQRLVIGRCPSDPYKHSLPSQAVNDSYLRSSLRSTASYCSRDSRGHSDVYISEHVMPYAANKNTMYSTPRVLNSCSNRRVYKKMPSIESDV
Description: as §2, §3, §4, §5, §6, §7, §8, §9, §10

[3] = system: Rat hippocampal primary culture cells; assay: protective effect against nerve cell death induced by NMDA (lactate dehydrogenase release); assay type: cell-based; conditions: NMDA exposure one hour, LDH release after 24 hours
Description: as §1

[4] = system: mouse convulsion induced by NMDA; assay: suppression of NMDA-induced convulsion in mouse (permeability through the blood brain barrier); assay type: in vivo
Description: Polyamine derivatives according to the present invention were evaluated for permeability through the blood brain barrier.
When 100 mg/kg NMDA was injected into a mouse abdominal cavity, convulsion is induced several minutes later. Then, the convulsion suppression effect of a polyamine derivative on mouse convulsion induced by NMDA was investigated.
When 0.5 mg/kg TsPDG and BsPDG were intravenously administered into a mouse 30 minutes before NMDA injection, the time of convulsion induced by NMDA was reduced by 43% and 39%. This reduction rate of convulsion time was equivalent to that (38%) when 10 mg/kg memantine intravenously administered.

NMDA receptor = conditions: read-out: IC50 of memantine (NMDA receptor); cited from earlier work
[5] = Xenopus oocytes, Vh -70 mV, glutamate and glycine as agonists, mean ± S.E.M. of 4 to 5 oocytes, read-out: IC50 NR1/NR2B
[6] = Xenopus oocytes, Vh -70 mV, glutamate and glycine as agonists, mean ± S.E.M. of 4 to 5 oocytes, read-out: IC50 NR1/NR2A
[7] = 0.5 mg/kg intravenously 30 minutes before 100 mg/kg NMDA i.p.
[8] = undifferentiated SH-SY5Y neuroblastoma cells

SMILES	IC50 (NMDA receptor NR1/NR2B; [5]) [nM]	IC50 at 24 h ([2]; undifferentiated SH-SY5Y cells) [mM]	IC50 (NMDA receptor NR1/NR2A; [6]) [nM]	other results
CCCCS(=O)(=O)NCCCCNCCCCNCCCCNC(=N)N [BsPDG]	24 ± 3	> 3	15 ± 1	suppression of nerve cell death induced by glutamate ([1]; 1 μM compound): significantly suppressed; suppression of nerve cell death induced by NMDA ([3]; 1 μM compound): completely suppressed; reduction of the time of convulsion induced by NMDA [4, 7]: 39%
CN(C)c1cccc2c(S(=O)(=O)NCCCNCCCCNCCCN)cccc12 [Dansyl-SPM, N^1-Dansyl-Spermine, reference compound]	310 ± 30	–	270 ± 30	IC50 at 24 h [2, 8]: 0.03 ± 0.001 mM
Cc1ccc(S(=O)(=O)NCCCNCCCCNCCCN)cc1 [Tosyl-SPM, N^1-Tosyl-Spermine, reference compound]	400 ± 10	–	350 ± 10	IC50 at 24 h [2, 8]: 0.336 ± 0.007 mM
Cc1ccc(S(=O)(=O)NCCCCNCCCCNCCCCNC(=N)N)cc1 [TsPDG]	–	2.87 ± 0.066	–	suppression of nerve cell death induced by glutamate ([1]; 1 μM compound): significantly suppressed; IC50 (NMDA receptor NR1/NR2B): 27 ± 2 nM; IC50 (NMDA receptor NR1/NR2A): 17 ± 2 nM; suppression of nerve cell death induced by NMDA ([3]; 1 μM compound): completely suppressed; reduction of the time of convulsion induced by NMDA [4, 7]: 43%
Cc1ccc(S(=O)(=O)NCCCCNCCCCNCCCCN)cc1 [TsPD]	150 ± 1	1.83 ± 0.046	74 ± 3	suppression of nerve cell death induced by glutamate ([1]; 10 μM compound): significantly suppressed; suppression of nerve cell death induced by NMDA ([3]; 10 μM compound): completely suppressed
Cc1ccc(S(=O)(=O)NCCCNCCCCNCCCNC(=N)N)cc1 [TsSPMG]	370 ± 50	2.64 ± 0.037	320 ± 30	–
CC12CC3CC(C)(C1)CC(N)(C3)C2 [memantine, memantine hydrochloride, reference compound]	–	–	–	IC50 (NMDA receptor): 1000 nM; reduction of the time of convulsion induced by NMDA ([4]; 10 mg/kg intravenously): 38%
